Measured values reported in patent publication US8821908B2, “Mold-resistant construction materials” (Henkel AG & Co. KGaA, priority 2004, dated 2014).

Assays:
Type in all cases: cell-based
[1] = tested on: test fungi envisaged in DIN EN ISO 846 or Aspergillus niger (ATCC 6275) as sole test organism; test: Fungal resistance of cured silicone joint sealant films, test along the lines of DIN EN ISO846 after QUV aging (infestation index); parameters: key to Infestation index: sum of weekly growth ratings (0 = no growth to 5 = fully overgrown)
Experimental: Cured silicone films (approximately 80×60×5 mm) are sprayed alternately for 15 minutes each with a spray solution (2% strength aqueous Texapon NSO solution containing 0.5% Dehydran 1513 defoamer), then irradiated with UV light for 15 minutes, in a QUV accelerated weathering instrument (e.g. QUV-spray model). Per week, the test specimens are exposed to 198 spraying units and 198 UV units. After 4 (792 shower cycles), 8 (1584 shower cycles), and 12 weeks (2376 shower cycles), test specimens are taken for microbiological examination. An unweathered sample is likewise investigated microbiologically.
The fungal resistance of cured joint-sealing compounds is assessed in a method based on DIN EN ISO846: “Determination of the action of microorganisms on plastics (ISO 846:1997 German version EN ISO 846: 1997); (amended).
Test specimens of cured joint-sealing compounds are applied planarly to an agar surface. A fungal suspension is caused to act on the test specimens and the surrounding agar surface. After incubation, an assessment is made of the growth on and around the test specimens.
Test conditions: The following important amendments and additions to the DIN EN ISO 846 are carried out: • (1) The test specimens are tested to DIN EN ISO 846 without pretreatment. Additionally, test specimens are also assessed in the test after pretreatment. This pretreatment (leaching) may take place, for example, by incubation for a number of weeks in a flow-traversed immersion bath with water or by accommodating suitable test specimens in a QUV; • (2) The fungal spore suspension is incubated under relatively harsh, realistic conditions with increased ambient air humidity (approximately 85% relative humidity) in a humid chamber; • (3) The test specimens are incubated on ‘complete nutrient medium’ (cf. DIN EN ISO 846 4.2.1.2 method B), but with ‘wort agar’; • (4) As test organisms use is made either of the test fungi envisaged in DIN EN ISO 846: • Aspergillus niger ATCC 6275 • Penicillium funiculosum ATCC 36839 • Paecilomyces variotii ATCC 18502 • Gliocladium virens ATCC 9645 • Chaetomium globosum ATCC 6205 • or, alternatively, the strain Aspergillus niger (ATCC 6275) as sole test organism.
Evaluation of the growth on the test elements: • 0=no growth visible under microscope viewing • 1=no growth visible with naked eye, but growth clearly visible under the microscope • 2=growth visible with naked eye, up to 25% of the sample surface overgrown • 3=growth visible with naked eye, up to 50% of the sample surface overgrown • 4=considerable growth, over 50% of the sample surface overgrown • 5=severe growth, entire sample surface overgrown
All in all, the specimens are incubated for 18 weeks and inoculated again after 4 and 8 weeks in each case. The individual evaluations are added over this period and reported collectively as the infestation index.
A commercially customary silicone joint sealant (e.g., Dow Corning 3390) is admixed with the actives described and stirred with a stirrer until homogeneity is achieved. Thereafter, films of the sealant are produced and tested as described above.

[2] = tested on: Aspergillus niger (DSM1988); test: Sporulation inhibition on wort agar plates
Experimental: The surface of wort agar plates was contaminated with 100 μl in each case of a microbial suspension (10^3 CFU/ml) of Aspergillus niger (DSM1988). Added beforehand to the agar plates were different amounts of active (solutions in ethanol, for final concentrations see table). The plates were incubated at 25° C. for 3 days. Spore formation was assessed visually and the sporulation rate was ascertained in [%]. A growth inhibition or microbicidal effect only occurred for a concentration of 0.05% by weight OPP.

Candida albicans = test: Hyphal formation and cell growth of Candida albicans
Source text: Fucoidin, also known under the name fucosidan or fucoidan, is a polysaccharide from brown algae (Fucus vesiculosa, bladder wrack) which consists principally of sulfated L-fucose in 1,2-α-glycosidic linkage.

[3] = Amount of active added 500 ppm in silicone joint sealant, evaluations (0-5) added over 18 weeks
[4] = Amount of active added 1000 ppm in silicone joint sealant, evaluations added over 18 weeks

## CCCCCCCCn1sc(Cl)c(Cl)c1=O [DCOIT]
[1]; [3]
  Infestation index: 77
[1]; [4]
  Infestation index: 81
[1]; Amount of active added 2000 ppm in silicone joint sealant, evaluations added over 18 weeks
  Infestation index: 78

## CC(C)(C)C(O)(CCc1ccc(Cl)cc1)Cn1cncn1 (stereo not shown) [Tebuconazole, a-(2-(4-chlorophenyl)ethyl)-a-(1,1-dimethylethyl)-1H-1,2,4-triazole-1-ethanol]
[1]; [3]
  Infestation index: 60
[1]; [4]
  Infestation index: 57
[1]; Amount of active added 2500 ppm in silicone joint sealant, evaluations added over 18 weeks
  Infestation index: 37
[1]; Amount of active added 5000 ppm in silicone joint sealant, evaluations added over 18 weeks
  Infestation index: 20
[1]; Amount of active added 10000 ppm in silicone joint sealant, evaluations added over 18 weeks
  Infestation index: 12
[1]; in sealants, not observed with fungicides typically used at present
  dependence of mold prevention on concentration: virtually linear dependence with increasing concentration

## Oc1ccccc1-c1ccccc1 [ortho-phenylphenol]
[2]; Concentration of OPP 0.00001 %, 25° C., 3 days, assessed visually
  Sporulation [%]: 95%
[2]; Concentration of OPP 0.00005 %, 25° C., 3 days
  Sporulation [%]: 95%
[2]; Concentration of OPP 0.0001 %, 25° C., 3 days
  Sporulation [%]: 95%
[2]; Concentration of OPP 0.0005 %, 25° C., 3 days
  Sporulation [%]: 50%
[2]; Concentration of OPP 0.001 %, 25° C., 3 days
  Sporulation [%]: 25%
[2]; Concentration of OPP 0.005 %, 25° C., 3 days
  Sporulation [%]: 0%
[2]; without any growth inhibition activity occurring
  concentration of complete suppression of spore formation relative to growth-inhibiting concentration: fifty times lower
[2]; wort agar, 25° C., 3 days
  concentration at which a growth inhibition or microbicidal effect occurred: 0.05 % by weight
  use concentration at which spore formation was suppressed completely: 0.001 % by weight

## Fucoidin
Candida albicans
  cell growth: unaffected
  hyphal formation: significantly reduced

## ortho-phenylphenol-silicic ester
[2]; Concentration of OPP-silicic ester 0.00001 %, 25° C., 3 days
  Sporulation [%]: 95%
[2]; Concentration of OPP-silicic ester 0.00005 %, 25° C., 3 days
  Sporulation [%]: 95%
[2]; Concentration of OPP-silicic ester 0.0001 %, 25° C., 3 days
  Sporulation [%]: 95%
[2]; Concentration of OPP-silicic ester 0.0005 %, 25° C., 3 days
  Sporulation [%]: 50%
[2]; Concentration of OPP-silicic ester 0.001 %, 25° C., 3 days
  Sporulation [%]: 25%
[2]; Concentration of OPP-silicic ester 0.005 %, 25° C., 3 days
  Sporulation [%]: 0%
[2]; Concentration of OPP-silicic ester 0.01 %, 25° C., 3 days
  Sporulation [%]: 0%
[2]; wort agar, 25° C., 3 days
  use concentration at which spore formation was suppressed completely: 0.005 % by weight
